Measured values published in patent publication US8268797B2, “Combination therapy for the treatment of cancer” (Isis Pharmaceuticals, Inc., priority 2008, dated 2012).

Experiments:
[1] = tested on: A549 xenografts; assay: A549 human non-small cell lung cancer xenograft tumor volume in athymic nude mice; type: in vivo; conditions: for A549 Xenograft Tumor Volume, Mean / Percent Reduction of A549 Tumor Size on Day 75: ASO 50 mg/kg iv, cisplatin 5 mg/kg IP weekly; for A549 Xenograft Tumor Volume, Mean: nude mice; for Percent Reduction of A549 Tumor Size on Day 75: negative number indicates reduction vs. control
Method: (§1) Xenograft studies are carried out as described in Graff et al. (2005) Cancer Res. 65:7462-7469. Five million human cancer cells representing non-small cell lung cancer (line A549; ATCC, accession no. CCL-185; line NCI-H1975; ATCC, accession no. CRL-5908) are injected subcutaneously in the flank of 6-8 week old, athymic nude mice (Harlan, Indianapolis, Ind.) in a 1:1 mixture of serum-free growth medium and matrigel (Becton Dickinson, Bedford, Mass., catalogue #354234). Mice are monitored daily for palpable tumors.
(§2) When tumor volumes reach ˜50-100 mm^3, mice are randomized to treatment groups (Graff et al. (2007) J. Clin. Invest. 117:2638-48). Body weight is monitored each time tumors are measured.
(§3) For treatment, all mice are injected intravenously with the eIF-4E ASO in saline in a total volume of 200 μl. The ASO consists of the nucleotide sequence 5′-[…]-3′ (SEQ ID NO:1), in which every internucleoside linkage is a phosphorothioate linkage, nucleotides 1-5 and 16-20 reading from the 5′ end to the 3′ end each comprise a 2′-O-(2-methoxyethyl) sugar, nucleotides 6-15 are 2′-deoxynucleotides, every cytosine residue is a 5-methylcytosine, and which is in the form of a sodium salt. The mice are first injected with an initial loading dose of 50 mg/kg ASO for 3 consecutive days, followed by 50 mg/kg thrice weekly thereafter.
(§4) Cisplatin dosing begins 8 days after the first ASO dose to allow time for reduction of eIF-4E protein expression. Mice are dosed intraperitoneally (IP) with 2 or 5 mg/kg cisplatin (Teva Parenteral Medicines, Inc.; 0703-5748-11) from an infusion concentrate diluted in saline, in a volume of 200 μl once weekly for 65 days. One mL of infusion concentrate (1 mg/mL) contains 1 mg cisplatin, 9 mg sodium chloride, hydrochloric acid and/or sodium hydroxide to pH 3.2-4.4, and water for injection.
(§5) The vehicle only group is dosed with saline.
(§6) Tumor volumes are calculated measuring the largest (L) and smallest (W) diameters with a caliper. The formula is: Volume=L×W^2×0.534. Tumor volume data are transformed to a log scale to equalize variance across time and treatment groups. The log volume data are analyzed with a two-way repeated measures analysis of variance by time and treatment using SAS PROC MIXED software (SAS Institute Inc, Cary, N.C.) using the spatial power covariance structure. Treatment groups are compared to the control group at each time point and overall. The data may be plotted as means and standard errors for each treatment group versus time. Additivity is assessed in two ways: (1) as an overall interaction effect between the ASO and cisplatin in the repeated measures analysis, and (2) by using the Bliss Independence method on the final day of the study (C. I. Bliss (1939) Ann. AppL Biol. 26:585-615). These two methods yield the same results.

[2] = tested on: H1975 xenografts; assay: H1975 human non-small cell lung cancer xenograft tumor volume in athymic nude mice; type: in vivo; conditions: for H1975 Xenograft Tumor Volume, Mean / Percent Reduction of H1975 Tumor Size on Day 43: ASO 50 mg/kg iv, cisplatin 5 mg/kg IP weekly; for H1975 Xenograft Tumor Volume, Mean: nude mice; for Percent Reduction of H1975 Tumor Size on Day 43: negative number indicates reduction vs. control
Method: as §1, §2, §3, §4, §5, §6

Molecule	A549 Xenograft Tumor Volume, Mean ([1]; Day 11)	A549 Xenograft Tumor Volume, Mean ([1]; Day 14)	A549 Xenograft Tumor Volume, Mean ([1]; Day 18)	A549 Xenograft Tumor Volume, Mean ([1]; Day 21)	A549 Xenograft Tumor Volume, Mean ([1]; Day 25)	A549 Xenograft Tumor Volume, Mean ([1]; Day 28)	A549 Xenograft Tumor Volume, Mean ([1]; Day 32)	A549 Xenograft Tumor Volume, Mean ([1]; Day 36)	A549 Xenograft Tumor Volume, Mean ([1]; Day 40)	A549 Xenograft Tumor Volume, Mean ([1]; Day 43)	A549 Xenograft Tumor Volume, Mean ([1]; Day 47)	A549 Xenograft Tumor Volume, Mean ([1]; Day 50)	A549 Xenograft Tumor Volume, Mean ([1]; Day 54)	A549 Xenograft Tumor Volume, Mean ([1]; Day 57)	A549 Xenograft Tumor Volume, Mean ([1]; Day 61)	A549 Xenograft Tumor Volume, Mean ([1]; Day 64)	A549 Xenograft Tumor Volume, Mean ([1]; Day 68)	A549 Xenograft Tumor Volume, Mean ([1]; Day 71)	A549 Xenograft Tumor Volume, Mean ([1]; Day 75)	Percent Reduction of A549 Tumor Size on Day 75 ([1]; Day 75)	other results
d(P-thio) ([2′-O-(2-methoxyethyl)]m5rU-([2′-O-(2-methoxyethyl)]rG-([2′-O-(2-methoxyethyl)]m5rU-([2′-O-(2-methoxyethyl)]mSrC-([2′-O-(2-methoxyethyl)]rA-T-A-T-T-m5C-m5C-T-G-G-A ([2′-O-(2-methoxyethyl)]m5rU-([2′-O-(2-methoxyethyl)]m5rC-([2′-O-(2-methoxyethyl)]m5rC-([2′-O-(2-methoxyethyl)]m5rU-([2′-O-(2-methoxyethyl)]m5rU) [eIF-4E ASO]	86.39 mm^3	87.36 mm^3	141.7 mm^3	134.88 mm^3	212.4 mm^3	251.64 mm^3	309.94 mm^3	402.67 mm^3	439.54 mm^3	499.06 mm^3	455.53 mm^3	463.92 mm^3	520.9 mm^3	550.29 mm^3	597.72 mm^3	618.75 mm^3	594.08 mm^3	566.2 mm^3	608.86 mm^3	−22.6%	sensitization of tumor cells to the growth- and proliferation-inhibiting action of cisplatin ([1]; A549 xenografts): sensitizes the tumor cells; H1975 Xenograft Tumor Volume, Mean ([2]; Day 7): 45.83 mm^3; H1975 Xenograft Tumor Volume, Mean ([2]; Day 12): 85.9 mm^3; H1975 Xenograft Tumor Volume, Mean ([2]; Day 15): 121.6 mm^3; H1975 Xenograft Tumor Volume, Mean ([2]; Day 19): 255.64 mm^3; H1975 Xenograft Tumor Volume, Mean ([2]; Day 22): 376.84 mm^3; H1975 Xenograft Tumor Volume, Mean ([2]; Day 26): 742.98 mm^3; H1975 Xenograft Tumor Volume, Mean ([2]; Day 29): 1100.19 mm^3; H1975 Xenograft Tumor Volume, Mean ([2]; Day 33): 1485.65 mm^3; H1975 Xenograft Tumor Volume, Mean ([2]; Day 36): 2164.31 mm^3; H1975 Xenograft Tumor Volume, Mean ([2]; Day 40): 2901.75 mm^3; H1975 Xenograft Tumor Volume, Mean ([2]; Day 43): 3881.36 mm^3; Percent Reduction of H1975 Tumor Size on Day 43 ([2]; Day 43): 11.5%; sensitization of tumor cells to the growth- and proliferation-inhibiting action of cisplatin ([2]; H1975 xenografts): sensitizes the tumor cells
N.N.[Cl][Pt][Cl] [Cisplatin, cis-Diamminedichloroplatinum (II), reference compound]	85.43 mm^3	94.63 mm^3	124.68 mm^3	137.74 mm^3	210.75 mm^3	238.78 mm^3	283.12 mm^3	310.61 mm^3	367.44 mm^3	412.68 mm^3	405.18 mm^3	428.84 mm^3	478.35 mm^3	482.77 mm^3	478.95 mm^3	529.51 mm^3	520.83 mm^3	564.57 mm^3	535.33 mm^3	−31.9%	H1975 Xenograft Tumor Volume, Mean ([2]; Day 7): 40.02 mm^3; H1975 Xenograft Tumor Volume, Mean ([2]; Day 12): 90.76 mm^3; H1975 Xenograft Tumor Volume, Mean ([2]; Day 15): 112.12 mm^3; H1975 Xenograft Tumor Volume, Mean ([2]; Day 19): 172.5 mm^3; H1975 Xenograft Tumor Volume, Mean ([2]; Day 22): 295.95 mm^3; H1975 Xenograft Tumor Volume, Mean ([2]; Day 26): 595.06 mm^3; H1975 Xenograft Tumor Volume, Mean ([2]; Day 29): 863.18 mm^3; H1975 Xenograft Tumor Volume, Mean ([2]; Day 33): 1221.36 mm^3; H1975 Xenograft Tumor Volume, Mean ([2]; Day 36): 1740.85 mm^3; H1975 Xenograft Tumor Volume, Mean ([2]; Day 40): 2095.44 mm^3; H1975 Xenograft Tumor Volume, Mean ([2]; Day 43): 2798.22 mm^3; Percent Reduction of H1975 Tumor Size on Day 43 ([2]; Day 43): −19.6%
